Measurements published in the supplement of paper PMC10307832.

Key:
Assay in all cases: relative viability (nuclei count vs DMSO), 5 days (fraction); higher = more cells survive
[1] = compound: CC1CC(=O)N(C2=CN=C(N=C2N1C3CCCC3)NC4=C(C=C(C=C4)C(=O)NC5CCN(CC5)C)OC)C [NPK76-II-72-1] + COc1cc2c(Oc3ccc(NC(=O)C4(C(=O)Nc5ccc(F)cc5)CC4)cc3F)ccnc2cc1OCCCN1CCOCC1 [Foretinib] (partner 0.25 µM)
Procedure, shortened: (§1)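 Dosing by pin tool came one day after lung cancer cell lines were seeded in 1536-well plates, using either one drug or a fixed anchor-drug dose plus five library-drug doses (not always all listed) in √10 steps. After 5 days, nuclei were counted on 4× images. Relative viability is treated-well nuclei count divided by vehicle-well nuclei count, and values are medians of duplicate plates.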

[2] = compound: CC1CC(=O)N(C2=CN=C(N=C2N1C3CCCC3)NC4=C(C=C(C=C4)C(=O)NC5CCN(CC5)C)OC)C [NPK76-II-72-1] + Cc1cc(Nc2cc(N3CCN(C)CC3)nc(Sc3ccc(NC(=O)C4CC4)cc3)n2)n[nH]1 [Tozasertib] (partner 0.1 µM)
Procedure, shortened: as §1

BI-2536 + Bortezomib = compound: CC[C@@H]1C(=O)N(C)c2cnc(Nc3ccc(C(=O)NC4CCN(C)CC4)cc3OC)nc2N1C1CCCC1 [BI-2536] + CC(C)C[C@H](NC(=O)[C@H](Cc1ccccc1)NC(=O)c1cnccn1)B(O)O [Bortezomib] (partner 0.002 µM)
Procedure, shortened: as §1

BI-2536 + Crizotinib = compound: CC[C@@H]1C(=O)N(C)c2cnc(Nc3ccc(C(=O)NC4CCN(C)CC4)cc3OC)nc2N1C1CCCC1 [BI-2536] + C[C@@H](Oc1cc(-c2cnn(C3CCNCC3)c2)cnc1N)c1c(Cl)ccc(F)c1Cl [Crizotinib] (partner 1 µM)
Procedure, shortened: as §1

UMC-11
relative viability ([1]; first compound 0.01 µM): 0.988
relative viability ([1]; first compound 0.03162 µM): 1.06
relative viability ([1]; first compound 0.1 µM): 1.06
relative viability ([1]; first compound 1 µM): 0.95
relative viability ([2]; first compound 0.01 µM): 0.197
relative viability ([2]; first compound 0.03162 µM): 0.186
relative viability ([2]; first compound 0.1 µM): 0.197
relative viability ([2]; first compound 1 µM): 0.205
relative viability (BI-2536 + Bortezomib; first compound 0.01 µM): 0.601
relative viability (BI-2536 + Bortezomib; first compound 0.03162 µM): 0.414
relative viability (BI-2536 + Bortezomib; first compound 0.1 µM): 0.175
relative viability (BI-2536 + Bortezomib; first compound 0.3162 µM): 0.134
relative viability (BI-2536 + Bortezomib; first compound 1 µM): 0.104
relative viability (BI-2536 + Crizotinib; first compound 0.01 µM): 0.48
relative viability (BI-2536 + Crizotinib; first compound 0.03162 µM): 0.237
relative viability (BI-2536 + Crizotinib; first compound 0.1 µM): 0.148
relative viability (BI-2536 + Crizotinib; first compound 0.3162 µM): 0.133
relative viability (BI-2536 + Crizotinib; first compound 1 µM): 0.1
